The compounds below were run against T1, active p38 alpha enzyme (Upstate Biotechnology) (Homo sapiens, UniProt Q16539) (assay: p38α biochemical assay (ATP turnover, luminescent detection, Cambrex PKlight)). Conditions: p38α biochemical assay, Table 1 Biological Activity.
T1 construct: purchased Upstate Biotechnology
T1 sequence (Q16539 whole entry): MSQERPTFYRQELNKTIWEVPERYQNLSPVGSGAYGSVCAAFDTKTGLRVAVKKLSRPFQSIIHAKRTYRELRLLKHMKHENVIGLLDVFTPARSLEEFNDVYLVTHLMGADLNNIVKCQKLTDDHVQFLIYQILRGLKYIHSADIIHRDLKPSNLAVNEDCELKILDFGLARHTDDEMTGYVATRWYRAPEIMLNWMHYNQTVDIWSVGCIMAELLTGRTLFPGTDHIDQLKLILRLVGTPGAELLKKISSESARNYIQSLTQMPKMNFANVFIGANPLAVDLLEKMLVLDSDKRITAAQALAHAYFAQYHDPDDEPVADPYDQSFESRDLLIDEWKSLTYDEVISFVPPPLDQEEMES
Procedure, shortened: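 p38α + MapkapK2 (whole protein substrate) + 1.4 uM ATP final; Tris/MOPS buffer with MgCl2, CaCl2, EGTA, EDTA, glycerol, β-ME, BSA; 2 h at 30C; luminescent detection of remaining ATP.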
For `Cc1cc(C)cc(C(=O)NCc2nc(-c3ccc(F)cc3)c(-c3nc(C(=O)NC(C)C)cs3)o2)c1` [Example 138], the IC50 was > 1000 nM. For `CC(C)NC(=O)c1csc(-c2oc(CNC(=O)CNC(=O)OC(C)(C)C)nc2-c2ccc(F)cc2)n1` [Example 201], the IC50 was > 1000 nM. For `CC1=NN(c2ccc(C(=O)N3CCN(Cc4nc(-c5ccc(F)cc5)c(-c5nc(C(=O)NC(C)C)cs5)o4)CC3)cc2)C(=O)C1` [Example 538], the IC50 was > 1000 nM. For `CC(C)NC(=O)c1csc(-c2c(-c3ccc(F)cc3)noc2CNC(=O)c2cc3ccccc3s2)n1` [Example 682], the IC50 was > 1000 nM. For `Cc1cc(C)cc(C(=O)N2CCN(Cc3nc(-c4ccc(F)cc4)c(-c4nc(C(=O)NC(C)C)cs4)o3)CC2)c1` [Example 375], the IC50 was > 1000 nM. `Cc1ccc([N+](=O)[O-])c(C(=O)NCc2nc(-c3ccc(F)cc3)c(-c3nc(C(=O)NC(C)C)cs3)o2)c1` [Example 222] was tested, and the IC50 was ≤ 1000 nM. For `CC(C)NC(=O)c1csc(-c2c(-c3ccc(F)cc3)noc2CNC(=O)C=O)n1` [Example 574], the IC50 was > 1000 nM. With `CC(C)NC(=O)c1csc(-c2oc(CN3CCN(C(=O)c4ccc(Cl)cc4Cl)CC3)nc2-c2ccc(F)cc2)n1` [Example 489] the IC50 was > 1000 nM. In the case of `CC(C)NC(=O)c1csc(-c2oc(CNC(=O)C3Cc4ccccc4CN3C(=O)OC(C)(C)C)nc2-c2ccc(F)cc2)n1` (centres unmarked) [Example 333], the IC50 is reported as > 1000 nM. In the case of `CC(C)NC(=O)c1csc(-c2c(-c3ccc(F)cc3)noc2CNC(=O)Cc2c(F)cccc2F)n1` [Example 668], the IC50 is reported as > 1000 nM. For `CC(C)NC(=O)c1csc(-c2c(-c3ccc(F)cc3)noc2CNC(=O)C(NC(=O)OC(C)(C)C)C(C)C)n1` (centres unmarked) [Example 774], the IC50 was > 1000 nM. For `CC(C)NC(=O)c1csc(-c2oc(CN3CCN(C(=O)c4cccc([N+](=O)[O-])c4)CC3)nc2-c2ccc(F)cc2)n1` [Example 422], the IC50 was > 1000 nM. In the case of `CC(C)NC(=O)c1csc(-c2oc(CN3CCN(C(=O)C(Cc4ccc(O)cc4)NC(=O)OC(C)(C)C)CC3)nc2-c2ccc(F)cc2)n1` (centres unmarked) [Example 571], the IC50 is reported as ≤ 1000 nM. With `CC(C)NC(=O)c1csc(-c2c(-c3ccc(F)cc3)noc2CNC(=O)c2c(O)ccc3ccccc23)n1` [Example 718] the IC50 was > 1000 nM. `Cc1cc(C(=O)N2CCN(Cc3nc(-c4ccc(F)cc4)c(-c4nc(C(=O)NC(C)C)cs4)o3)CC2)n[nH]1` [Example 353] was tested, and the IC50 was ≤ 1000 nM. `CC(C)NC(=O)c1csc(-c2c(-c3ccc(F)cc3)noc2CNC(=O)/C=C/c2ccccc2O)n1` [Example 641] was tested, and the IC50 was > 1000 nM. `CC(C)NC(=O)c1csc(-c2c(-c3ccc(F)cc3)noc2CNC(=O)c2cnc(O)c(Cl)c2)n1` [Example 673] was tested, and the IC50 was > 1000 nM. For `CC(C)NC(=O)c1csc(-c2c(-c3ccc(F)cc3)noc2CNC(=O)/C=C/c2cccc(O)c2)n1` [Example 643], the IC50 was > 1000 nM. In the case of `CC(C)NC(=O)c1csc(-c2c(-c3ccc(F)cc3)n[nH]c2C2CCNCC2)n1` [Example 61, 2-|3-(4-Fluoro-phenyl)-5-piperidin-4-yl-1H-pyrazol-4-yl|-thiazole-4-carboxylic acid isopropylamide], the IC50 is reported as ≤ 1000 nM. For `C#CCNC(=O)c1csc(-c2c(-c3ccc(F)cc3)ncn2C2CCN(Cc3ccccc3)CC2)n1` [Example 89, 2-|3-(1-Benzyl-piperidin-4-yl)-5-(4-fluoro-phenyl)-3H-imidazol-4-yl|-thiazole-4-carboxylic acid prop-2-ynylamide], the IC50 was > 1000 nM. In the case of `COc1cccc(O)c1C(=O)NCc1onc(-c2ccc(F)cc2)c1-c1nc(C(=O)NC(C)C)cs1` [Example 661], the IC50 is reported as > 1000 nM. For `Cc1onc(-c2cccc(C(F)(F)F)c2)c1-c1ccn(C(=O)NC(C)C)n1` [Example 19, 3-|5-Methyl-3-(3-trifluoromethyl-phenyl)-isoxazol-4-yl|-pyrazole-1-carboxylic acid isopropylamide], the IC50 was > 1000 nM. `CC(C)NC(=O)c1csc(-c2c(-c3ccc(F)cc3)noc2CNC(=O)C(C)O)n1` (centres unmarked) [Example 576] was tested, and the IC50 was > 1000 nM.

Same assay, conditions: p38α kinase; Table 1 Biological Activity
`CC(C)(C)OC(=O)NCCCNC(=O)c1csc(-c2c(-c3ccc(F)cc3)n[nH]c2C2CCNCC2)n1` [Example 2142] was tested, and the IC50 was > 1000 nM. With `COc1ccc(OC)c(CCNC(=O)c2csc(-c3c(-c4ccc(F)cc4)n[nH]c3C3CCNCC3)n2)c1` [Example 2148] the IC50 was > 1000 nM. In the case of `CC(C)NC(=O)c1csc(-c2oc(CN3CCC(Cc4ccccc4)CC3)nc2-c2ccc(F)cc2)n1` [Example 1248], the IC50 is reported as > 1000 nM. With `CC(C)NC(=O)c1csc(-c2oc(CNCc3cccc(F)c3)nc2-c2ccc(F)cc2)n1` [Example 1103] the IC50 was > 1000 nM. `CC(C)NC(=O)c1csc(-c2c(-c3ccc(F)cc3)n[nH]c2C2CCN(C(=O)c3ccnc(Cl)c3)CC2)n1` [Example 868] was tested, and the IC50 was ≤ 1000 nM. For `NCCNC(=O)c1csc(-c2c(-c3ccc(F)cc3)n[nH]c2C2CCNCC2)n1` [Example 2035], the IC50 was > 1000 nM. With `CC(C)NC(=O)c1csc(-c2c(-c3ccc(F)cc3)noc2CNc2ccc(F)cc2)n1` [Example 1639] the IC50 was > 1000 nM. `CNC(=O)c1csc(-c2c(-c3ccc(F)cc3)n[nH]c2C2CCNCC2)n1` [Example 2031] was tested, and the IC50 was ≤ 1000 nM. In the case of `CC(C)NC(=O)c1csc(-c2c(-c3ccc(F)cc3)noc2CN2CCCN(Cc3ccccc3)CC2)n1` [Example 1576], the IC50 is reported as > 1000 nM. In the case of `Cc1nc(-c2ccc(F)cc2)c(-c2nc(C(=O)NC3CCC3)cs2)s1` [Example 1714], the IC50 is reported as ≤ 1000 nM. In the case of `CCc1cccc(C)c1NC(=O)c1csc(-c2sc(C)nc2-c2ccc(F)cc2)n1` [Example 1985], the IC50 is reported as > 1000 nM. `Cc1cc(C(=O)N2CCC(c3[nH]nc(-c4ccc(F)cc4)c3-c3nc(C(=O)NC(C)C)cs3)CC2)cc(Cl)n1` [Example 906] was tested, and the IC50 was > 1000 nM. `CC(C)NC(=O)c1csc(-c2c(-c3ccc(F)cc3)noc2CN(CCc2ccccc2)Cc2ccccc2)n1` [Example 1612] was tested, and the IC50 was > 1000 nM. With `CCc1ccccc1NC(=O)c1csc(-c2sc(C)nc2-c2ccc(F)cc2)n1` [Example 1967] the IC50 was > 1000 nM. In the case of `COc1cc(OC)cc(C(=O)N2CCC(c3[nH]nc(-c4ccc(F)cc4)c3-c3nc(C(=O)NC(C)C)cs3)CC2)c1` [Example 941], the IC50 is reported as > 1000 nM. With `CC(C)NC(=O)c1csc(-c2c(-c3ccc(F)cc3)noc2CNc2ccc(Cl)c(Cl)c2)n1` [Example 1682] the IC50 was > 1000 nM. `Cc1ccc(NCc2onc(-c3ccc(F)cc3)c2-c2nc(C(=O)NC(C)C)cs2)cc1F` [Example 1651] was tested, and the IC50 was > 1000 nM. For `CCC(C)CNC(=O)c1csc(-c2c(-c3ccc(F)cc3)n[nH]c2C2CCNCC2)n1` (centres unmarked) [Example 2046], the IC50 was > 1000 nM. For `CC(=O)NC(Cc1ccc(O)cc1)C(=O)N1CCC(c2[nH]nc(-c3ccc(F)cc3)c2-c2nc(C(=O)NC(C)C)cs2)CC1` (centres unmarked) [Example 1019], the IC50 was > 1000 nM. `Cc1ccc(C)c(CNC(=O)c2csc(-c3sc(C)nc3-c3ccc(F)cc3)n2)c1` [Example 1769] was tested, and the IC50 was > 1000 nM. `CC(C)NC(=O)c1csc(-c2c(-c3ccc(F)cc3)noc2CN2CCN(c3ccccc3Cl)CC2)n1` [Example 1627] was tested, and the IC50 was > 1000 nM. `Cc1nc(-c2ccc(F)cc2)c(-c2nc(C(=O)N3CCN(c4ccc(Cl)c(Cl)c4)CC3)cs2)s1` [Example 1949] was tested, and the IC50 was > 1000 nM. `CC(CC(=O)N1CCC(c2[nH]nc(-c3ccc(F)cc3)c2-c2nc(C(=O)NC(C)C)cs2)CC1)CC(C)(C)C` (centres unmarked) [Example 876] was tested, and the IC50 was > 1000 nM. `COc1cc(CNCc2onc(-c3ccc(F)cc3)c2-c2nc(C(=O)NC(C)C)cs2)cc(OC)c1` [Example 1489] was tested, and the IC50 was > 1000 nM. `CC(C)NC(=O)c1csc(-c2oc(CN3CCN(c4ccc(F)cc4)CC3)nc2-c2ccc(F)cc2)n1` [Example 1254] was tested, and the IC50 was > 1000 nM. In the case of `Cc1ccc(C)c(N2CCN(Cc3nc(-c4ccc(F)cc4)c(-c4nc(C(=O)NC(C)C)cs4)o3)CC2)c1` [Example 1268], the IC50 is reported as > 1000 nM. `CC(C)NC(=O)c1csc(-c2oc(CN3CCOCC3)nc2-c2ccc(F)cc2)n1` [Example 1183] was tested, and the IC50 was ≤ 1000 nM. For `CC(C)NC(=O)c1csc(-c2oc(CNCc3ccc(F)c(F)c3)nc2-c2ccc(F)cc2)n1` [Example 1135], the IC50 was > 1000 nM. `Cc1nc(-c2ccc(F)cc2)c(-c2nc(C(=O)N3CCCC3CO)cs2)s1` (centres unmarked) [Example 1850] was tested, and the IC50 was ≤ 1000 nM. In the case of `COc1ccccc1CNCc1onc(-c2ccc(F)cc2)c1-c1nc(C(=O)NC(C)C)cs1` [Example 1455], the IC50 is reported as > 1000 nM. In the case of `CC(C)NC(=O)c1csc(-c2c(-c3ccc(F)cc3)n[nH]c2C2CCN(C(=O)c3cccc(O)c3)CC2)n1` [Example 838], the IC50 is reported as ≤ 1000 nM. With `Cc1nc(-c2ccc(F)cc2)c(-c2nc(C(=O)N(C)C)cs2)s1` [Example 1834] the IC50 was > 1000 nM. In the case of `CCCCN(CC)Cc1onc(-c2ccc(F)cc2)c1-c1nc(C(=O)NC(C)C)cs1` [Example 1527], the IC50 is reported as > 1000 nM. In the case of `CC(C)NC(=O)c1csc(-c2oc(CNCCN3CCCCC3)nc2-c2ccc(F)cc2)n1` [Example 1108], the IC50 is reported as > 1000 nM. For `Cc1nc(-c2ccc(F)cc2)c(-c2nc(C(=O)NC3CC(C)(C)NC(C)(C)C3)cs2)s1` [Example 1805], the IC50 was > 1000 nM. With `CC(C)NC(=O)c1csc(-c2c(-c3ccc(F)cc3)n[nH]c2C2CCN(C(=O)Cc3c(F)cccc3F)CC2)n1` [Example 907] the IC50 was > 1000 nM. `CC(C)NC(=O)c1csc(-c2c(-c3ccc(F)cc3)n[nH]c2C2CCN(C(=O)c3ccc([N+](=O)[O-])c(O)c3)CC2)n1` [Example 946] was tested, and the IC50 was > 1000 nM. For `CCCNCc1onc(-c2ccc(F)cc2)c1-c1nc(C(=O)NC(C)C)cs1` [Example 1388], the IC50 was > 1000 nM. In the case of `CC(=O)Nc1ccc(NC(=O)c2csc(-c3sc(C)nc3-c3ccc(F)cc3)n2)cn1` [Example 2001], the IC50 is reported as ≤ 1000 nM. With `Cc1cccnc1NCc1onc(-c2ccc(F)cc2)c1-c1nc(C(=O)NC(C)C)cs1` [Example 1637] the IC50 was > 1000 nM. For `CCOc1cccc(NC(=O)c2csc(-c3sc(C)nc3-c3ccc(F)cc3)n2)c1` [Example 1989], the IC50 was > 1000 nM. In the case of `O=C(NCc1ccncc1)c1csc(-c2c(-c3ccc(F)cc3)n[nH]c2C2CCNCC2)n1` [Example 2064], the IC50 is reported as ≤ 1000 nM. In the case of `Cc1nc(-c2ccc(F)cc2)c(-c2nc(C(=O)NC3CCC(C)CC3)cs2)s1` (centres unmarked) [Example 1744], the IC50 is reported as ≤ 1000 nM. With `C#CCN(C)C(=O)c1csc(-c2sc(C)nc2-c2ccc(F)cc2)n1` [Example 1836] the IC50 was > 1000 nM. In the case of `CC(C)NC(=O)c1csc(-c2c(-c3ccc(F)cc3)n[nH]c2C2CCN(C(=O)C3CCc4ccccc4C3)CC2)n1` (centres unmarked) [Example 918], the IC50 is reported as > 1000 nM.
